Literature values in US7192914B1, “Prevention of atherosclerosis and undesired blood clotting by reducing von Willebrand factor” (The Regents of the University of California, priority 1999, dated 2007).

System: human endothelial cells
Conditions: human endothelial cells treated with tunicamycin; Wagner et al. (1986) J. Cell Biol. 102: 1320-4

## tunicamycin
  effect on secreted vWF: absence of secreted vWF
